Among the data in patent US20240239775A1, “FXR REGULATOR, PREPARATION METHOD THEREFOR, PHARMACEUTICAL COMPOSITION THEREOF AND USE THEREOF” (QINGDAO RUIJI MEDICAL TECHNOLOGY CO., LTD., priority 2021, published 2024) are IC50 values, retold here.

Structures are written as SMILES.

The first experiment addresses T1, FXR (Homo sapiens, UniProt Q96RI1).
T1 construct: 5 μL of 20 nM FXR-LBD Complete Coregulator buffer G; purchased ThermoFisher PV4833
T1 sequence (Q96RI1 262-486 limits assumed): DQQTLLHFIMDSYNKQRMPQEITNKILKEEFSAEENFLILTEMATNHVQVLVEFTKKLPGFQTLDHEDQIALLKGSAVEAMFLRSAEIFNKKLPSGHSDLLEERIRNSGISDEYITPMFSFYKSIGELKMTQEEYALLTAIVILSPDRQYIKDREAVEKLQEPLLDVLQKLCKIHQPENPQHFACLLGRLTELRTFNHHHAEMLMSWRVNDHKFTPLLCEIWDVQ
In words: FXR antagonist screening by TR-FRET (LanthaScreen TR-FRET FXR co-activation assay kit). It is filed as biochemical. Particulars: Table 1.1, FXR antagonistic activity; TR-FRET with CDCA; geometric means of at least two independent runs. A digest of the protocol: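 FXR-LBD (20 nM working solution) mixed with compound, CDCA (200 μM working solution) as agonist, Fluorescein-SRC2-2 and Tb-anti-GST antibody in Coregulator buffer G; 10 h at room temperature. Coactivator recruitment read by TR-FRET, triplicate wells.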
On the technique in general: TR-FRET usually uses a lanthanide donor and a delayed reading to cut background.
With `CCOC(=O)c1oc2ccc(S(=O)(=O)N(CCc3ccccc3)Cc3ccccc3F)cc2c1C` [Example M4-14, ethyl 3-methyl-5-(N-(2-fluorobenzyl)-N-phenethylsulfamoyl)benzofuran-2-carboxylate], the IC50 is 50 to 100 µM.
On the same count and under the same terms, the result for `Cc1c(C(=O)O)oc2ccc(S(=O)(=O)N(CCc3ccccc3)Cc3ccc(Br)cc3)cc12` [Example F27-S30, 3-methyl-5-(N-(4-bromobenzyl)-N-phenethylsulfamoyl)benzofuran-2-carboxylic acid] reads 10 to 50 µM; that for `CCOC(=O)c1oc2ccc(S(=O)(=O)N(CCc3ccccc3)Cc3ccc(C(F)(F)F)cc3F)cc2c1C` [Example M4-55, ethyl 3-methyl-5-(N-(2-fluoro-4-(trifluoromethyl)benzyl)-N-phenethylsulfamoyl)benzofuran-2-carboxylate], 50 to 100 µM; that for `CCOC(=O)c1oc2ccc(S(=O)(=O)N(CCc3ccccc3)c3ccccc3N3CCN(S(C)(=O)=O)CC3)cc2c1C` [Example M10-93, ethyl 3-methyl-5-(N-(2-(4-(methylsulfonyl)piperazin-1-yl)phenyl)-N-phenethylsulfamoyl)benzofuran-2-carboxylate], 50 to 100 µM.
Regarding `CCOC(=O)c1oc2ccc(S(=O)(=O)N(CCc3ccccc3)Cc3ccc(C(=O)c4ccccc4)cc3)cc2c1C` [Example M4-85, ethyl 3-methyl-5-(N-(4-benzoylbenzyl)-N-phenethylsulfamoyl)benzofuran-2-carboxylate], the IC50 was in the range of 50 to 100 µM.
Regarding `CCOC(=O)c1oc2ccc(S(=O)(=O)N(CCc3ccccc3)c3ccc(CN4CCN(C(=O)OC(C)(C)C)CC4)cc3)cc2c1C` [Example M8-76, ethyl 3-methyl-5-(N-(4-((4-(tert-butoxycarbonyl)piperazin-1-yl)methyl)phenyl)-N-phenethylsulfamoyl)benzofuran-2-carboxylate], the IC50 is 50 to 100 µM.
The compound `CCOC(=O)c1oc2ccc(S(=O)(=O)N(CCc3ccccc3)Cc3ccc4ccccc4c3)cc2c1C` [Example M4-45, ethyl 3-methyl-5-(N-(naphthalen-2-ylmethyl)-N-phenethylsulfamoyl)benzofuran-2-carboxylate] returned an IC50 of 50 to 100 µM.
In turn, `CCOC(=O)c1oc2ccc(S(=O)(=O)N(CCc3ccccc3)c3ccccc3N3CCN(C(=O)OC(C)(C)C)CC3)cc2c1C` [Example M8-77, ethyl 3-methyl-5-(N-(2-(4-(tert-butoxycarbonyl)piperazin-1-yl)phenyl)-N-phenethylsulfamoyl)benzofuran-2-carboxylate] showed an IC50 of 50 to 100 µM.
In the case of `CCOC(=O)c1oc2ccc(S(=O)(=O)N(CCc3ccccc3)Cc3ccc(Br)cc3F)cc2c1C` [Example M4-53, ethyl 3-methyl-5-(N-(2-fluoro-4-bromobenzyl)-N-phenethylsulfamoyl)benzofuran-2-carboxylate], the IC50 was in the range of 50 to 100 µM.
As to `CCOC(=O)c1oc2ccc(S(=O)(=O)N(CCc3ccccc3)Cc3ccc(-c4ccccc4C#N)cc3)cc2c1C` [Example M4-83, ethyl 3-methyl-5-(N-((2′-cyano-[1,1′-biphenyl]-4-yl)methyl)-N-phenethylsulfamoyl)benzofuran-2-carboxylate], the IC50 lay in the range of 50 to 100 µM.
Compound `CCOC(=O)c1oc2ccc(S(=O)(=O)N(CCc3ccccc3)Cc3c(Cl)cccc3Cl)cc2c1C` [Example M4-49, ethyl 3-methyl-5-(N-(2,6-dichlorobenzyl)-N-phenethylsulfamoyl)benzofuran-2-carboxylate] returned an IC50 of 50 to 100 µM.
Same read-out and setting: the result for `Cc1c(C(=O)O)oc2ccc(S(=O)(=O)N(CCc3ccccc3)c3ccccc3)cc12` [Example F27-S10, 3-methyl-5-(N-phenethyl-N-phenylsulfamoyl)benzofuran-2-carboxylic acid] reads 50 to 100 µM; that for `CCOC(=O)c1oc2ccc(S(=O)(=O)N(CCc3ccccc3)Cc3cccc(C(F)(F)F)c3)cc2c1C` [Example M4-24, ethyl 3-methyl-5-(N-(3-trifluoromethylbenzyl)-N-phenethylsulfamoyl)benzofuran-2-carboxylate], 50 to 100 µM; that for `CCOC(=O)c1oc2ccc(S(=O)(=O)N(CCc3ccccc3)Cc3ccc(C(F)(F)F)cc3C(F)(F)F)cc2c1C` [Example M4-58, ethyl 3-methyl-5-(N-(2,4-bis(trifluoromethyl)benzyl)-N-phenethylsulfamoyl)benzofuran-2-carboxylate], 50 to 100 µM.
As to `CCOC(=O)c1oc2ccc(S(=O)(=O)N(CCc3ccccc3)c3ccc(N4CCN(C(C)=O)CC4)cc3)cc2c1C` [Example M8-68, ethyl 3-methyl-5-(N-(4-(4-acetylpiperazin-1-yl)phenyl)-N-phenethylsulfamoyl)benzofuran-2-carboxylate], the IC50 lay in the range of 50 to 100 µM.

Staying with this experiment, now noted: Table 1.2, FXR antagonistic activity; TR-FRET with CDCA; geometric means of at least two independent runs.
On to `CCOC(=O)c1oc2ccc(S(=O)(=O)N(CCc3ccccc3)c3ccccc3N3CCN(C(=O)c4ccno4)CC3)cc2c1C` [Example M10-146, Ethyl 5-(N-(2-(4-(isoxazole-5-carbonyl)piperazin-1-yl)phenyl)-N-phenethylsulfamoyl)3-methylbenzofuran-2-carboxylate], for which the IC50 is 50 to 100 µM.
On to `CCOC(=O)c1oc2ccc(S(=O)(=O)N(CCc3ccccc3)c3ccccc3N3CCN(C(=O)c4ccc(Br)s4)CC3)cc2c1C` [Example M10-123, Ethyl 5-(N-(2-(4-(5-bromothiophene-2-carbonyl)piperazin-1-yl)phenyl)-N-phenethylsulfamoyl)-3-methylbenzofuran-2-carboxylate], for which the IC50 is 50 to 100 µM.
In turn, `Cc1ccc(C(=O)N2CCN(c3ccccc3N(CCc3ccccc3)S(=O)(=O)c3ccc4oc(C(=O)O)c(C)c4c3)CC2)cc1` [Example F27-S106, 3-methyl-5-(N-(2-(4-(4-methylbenzoyl)piperazin-1-yl)phenyl)-N-phenethylsulfamoyl)benzofuran-2-carboxylic acid] had an IC50 of 0.1 to 10 µM.
`CCOC(=O)c1sc2ccc(S(=O)(=O)Nc3ccccc3N3CCN(C(=O)c4sccc4Br)CC3)cc2c1C` [Example M10-176, Ethyl 5-(N-(2-(4-(3-bromothiophene-2-carbonyl)piperazin-1-yl)phenyl)sulfamoyl)-3-toluothiophene-2-carboxylate] yielded an IC50 of 50 to 100 µM.
`CCOC(=O)c1sc2ccc(S(=O)(=O)N(CCc3ccc(OC)cc3)c3ccccc3N3CCN(C(=O)c4sccc4Br)CC3)cc2c1C` [Example M10-177, Ethyl 5-(N-(2-(4-(3-bromothiophene-2-formyl)piperazin-1-yl)phenyl)-N-(4-methoxyphenethyl)sulfamoyl)3-methylbenzothiophene-2-carboxylate] had an IC50 of 50 to 100 µM.
Take `CCOC(=O)c1oc2ccc(S(=O)(=O)N(CCc3ccccc3)c3ccccc3N3CCN(C(=O)c4cnco4)CC3)cc2c1C` [Example M10-131, Ethyl 3-methyl-5-(N-(2-(4-(oxazole-5-carbonyl)piperazin-1-yl)phenyl)-N-phenethylsulfamoyl)benzofuran-2-carboxylate]: the half-inhibitory concentration (IC50) is 50 to 100 µM.
As to `CCOC(=O)c1oc2ccc(S(=O)(=O)N(CCc3ccccc3)c3ccccc3N3CCN(C(=O)c4cccs4)CC3)cc2c1C` [Example M10-118, Ethyl 3-methyl-5-(N-phenethyl-N-(2-(4-(thiophene-2-carbonyl)piperazin-1-yl)phenyl)sulfamoyl)benzofuran-2-carboxylate], the IC50 lay in the range of 50 to 100 µM.
In the case of `Cc1c(C(=O)O)oc2ccc(S(=O)(=O)N(CCc3ccccc3)c3ccccc3N3CCC4(CC3)CN(C(=O)c3sccc3Br)C4)cc12` [Example F27-S150], the IC50 fell in the range of 0.1 to 10 µM.
Same read-out and setting: the figure for `CCOC(=O)c1cc2ccc(S(=O)(=O)N(CCc3ccccc3)c3ccccc3N3CCN(C(=O)c4sccc4Br)CC3)cc2o1` [Example M10-164, Ethyl 6-(N-(2-(4-(3-bromothiophene-2-formyl)piperazin-1-yl)phenyl)-N-phenethylsulfamoyl)benzofuran-2-carboxylate] is 50 to 100 µM; for `Cc1c(C(=O)O)sc2ccc(S(=O)(=O)N(CCc3ccc(C#N)cc3)c3ccccc3N3CCN(C(=O)c4sccc4Br)CC3)cc12` [Example F27-S169] it is 0.1 to 10 µM.
For the compound `CCOC(=O)c1c(C)c2cc(S(=O)(=O)N(CCc3ccccc3)c3ccccc3N3CCN(C(=O)c4sccc4Br)CC3)ccc2n1C` [Example M10-179, Ethyl 5-(N-(2-(4-(3-bromothiophene-2-carbonyl)piperazin-1-yl)phenyl)-N-phenethylsulfamoyl)-1,3-dimethyl-1H-indole-2-carboxylate], the IC50 was in the range of 50 to 100 µM.
For the compound `O=C(O)c1cc2cc(S(=O)(=O)N(CCc3ccccc3)c3ccccc3N3CCN(C(=O)c4sccc4Br)CC3)ccc2o1` [Example F27-S162, 5-(N-(2-(4-(3-bromothiophene-2-formyl)piperazin-1-yl)phenyl)-N-phenethylsulfamoyl)benzofuran-2-carboxylic acid], the IC50 lay in the range of 0.1 to 10 µM.
`CCOC(=O)c1oc2ccc(S(=O)(=O)N(CCc3ccccc3)c3ccccc3N3CCN(C(=O)c4ccc(C(F)(F)F)cc4)CC3)cc2c1C` [Example M10-110] had an IC50 of 50 to 100 µM.
Take `CCOC(=O)c1oc2ccc(S(=O)(=O)N(CCc3ccccc3)c3ccccc3N3CCN(C(=O)c4ccc([N+](=O)[O-])cc4)CC3)cc2c1C` [Example M10-114, Ethyl 3-methyl-5-(N-(2-(4-(4-nitrobenzoyl)piperazin-1-yl)phenyl)-N-phenethylsulfamoyl)benzofuran-2-carboxylate]: the IC50 lay in the range of 50 to 100 µM.
The compound `Cc1c(C(=O)O)oc2cc(S(=O)(=O)N(CCc3ccccc3)c3ccccc3N3CCN(C(=O)c4sccc4Br)CC3)ccc12` [Example F27-S163, 6-(N-(2-(4-(3-bromothiophene-2-formyl)piperazin-1-yl)phenyl)-N-phenethylsulfamoyl)3-methylbenzofuran-2-carboxylic acid] had an IC50 of 0.1 to 10 µM.

What is called IC50 is the concentration that gives 50% inhibition. A high value points to weaker potency in that assay.
